Data reported in patent EP2886535A1, “Novel veterinary isometamidium compositions and similar substances and uses thereof” (Ceva Sante Animale, priority 2013, dated 2015).
Read-outs that look alike come from different tables or passages of the source.

Key:
T. b. brucei = assay: In vitro drug sensitivity test on cultured bloodstream forms, 48 h; type: cell-based; conditions: for IC50: 48 h exposure, 37 °C
Description: (§1) Les souches T. congolense et T. b. brucei (formes sanguines) ont été cultivées in vitro selon le protocole décrit par Baltz et al. (Embo. J. 1985, 4, 1273-1277) et Coustou et al. (PLOS Negl. Trop. Dis., 2010, 4, 618).
(§2) L'isométamidium a été synthétisé et a été purifié par HPLC (220 nm). L'analyse de sa structure a été confirmée par LC /MS et par RMN 1H et 13C et un degré de pureté de 99,7 % a été obtenu. L'isométamidium pur ainsi que les formulations commerciales Veridium® et Samorin® ont été dissous dans de l'eau distillée (10 mg / ml) et ont été conservés à -20°C avant utilisation.
(§3) Les trypanosomes sont ajoutés dans des plaques de culture cellulaire 96 puits incubées à 34 °C (T. congolense) ou à 37 °C (T. b. brucei) sous atmosphère de CO2 (4 %) pendant 4 heures avant l'ajout des composés qui ont été dilués en série 1/10^eme. 100 µl de chaque dilution ont été ensuite ajoutés à 100 µl de culture dans les puits (2 puits pour chaque dilution de 1 mg/ml jusqu'à 1.10^-19 mg/ml) puis le milieu est incubé à 34 °C (T. congolense) ou à 37 °C (T. b. brucei) sous atmosphère de CO2 (4 %) pendant 48 heures. Les IC50 (Concentration qui réduit de 50% la population parasitaire au bout de 48 heures de culture) ont été calculées en utilisant le logiciel de traitement de données Sigmaplot version 12.
(§4) Les souches T. congolense et T. b. brucei (formes sanguines), les différents composés et leur IC50 ont été, respectivement, cultivées in vitro, préparés et évaluées selon le protocole décrit dans l'exemple 1. Les puretés respectives pour chaque composé obtenu étaient de 97,6 % pour l'isomère bleu, 95,4% pour l'isomère rouge et 97,9 % pour le composé disubstitué.

T. congolense [1] = assay: as above; type: cell-based; conditions: for IC50: 48 h exposure, 34 °C; for activité trypanocide inférieure à celle des formulations commerciales: versus Veridium and Samorin, 48 h, up to about
Description: as §1, §2, §3, §4

T. congolense [2] = assay: In vivo curative and preventive activity in infected and monthly re-infected mice; parameters: species or system souris femelles swiss (CD1); conditions: for Nombre de souris avec une parasitemia positive: n=5; for activité curative et préventive (durée): dose 1 mg/kg
Protocol: La souche T. congolense est cultivée et les différents composés sont préparés selon les protocoles de culture et de préparation décrits pour les tests in vitro (Exemples 1 et 2).
Des parasites de la souche de T. congolense ont été initialement propagés dans des souris femelles swiss (CD1) âgées de 8 semaines (200 mg/kg). Ces souris sont ensuite infectés par voie intrapéritonéale avec 10^5 trypanosomes de souche T. congolense dans un volume final de 200 µl de tampon phosphate glucose (137 mM NaCl, 10 mM phosphate, […], pH 7,4, 1% glucose). Les souris sont alors traitées par les composés à tester 24 heures après l'infection (5 souris traités par composé à tester + un groupe témoin). Chaque composé testé est injecté par voie intrapéritonéale et à des concentrations de 1 et 0,1 mg/kg de poids corporel dans un volume final de 100 µl d'eau stérile. Les souris témoins non traitées reçoivent 100 µl d'eau stérile après infection. La parasitémie a été évaluée 2 fois par semaine au microscope à partir d'échantillons de sang prélevés sur la veine caudale. Afin d'évaluer la persistance des composés, les souris qui étaient parasite-négatives après un mois ont été ré-infectées avec 10^5 trypanosomes. La réinfection a été répétée après le deuxième et troisième mois à partir de l'infection initiale et du traitement si les souris infectées étaient toujours aparasitémiques (sans parasites dans le sang). La réinfection a été réalisée avec des parasites provenant de souris témoins infectées de manière chronique pour éviter une réponse immunitaire immédiate due à la présence d'anticorps homologues anti-VSG. Deux souris non-traitées (Témoin) ont été infectées à chaque infection et réinfection. Le traitement a été considéré inefficace quand plus de 2 souris sur 5 dans un groupe étaient parasite-positives.

T. congolense [3] = conditions: mice, Brown et al. 1961; purity of compounds unsatisfactory; cited from earlier work
T. congolense [4] = conditions: cattle, Finelle et al. 1963; cited from earlier work
[5] = Trypanosoma brucei, read-out: IC50
[6] = Trypanosoma congolense, read-out: IC50

| IC50 (T. b. brucei) | IC50 (T. congolense [1]) | IC50 (T. congolense [1]; [6]) | Compound | IC50 (T. b. brucei; [5]) | Nombre de souris avec une parasitemia positive (T. congolense [2]; dose 0.1 mg/kg i.p., 1 mois) | Nombre de souris avec une parasitemia positive (T. congolense [2]; dose 0.1 mg/kg i.p., 2 mois) | Nombre de souris avec une parasitemia positive (T. congolense [2]; dose 1 mg/kg i.p., 1 mois) | Nombre de souris avec une parasitemia positive (T. congolense [2]; dose 1 mg/kg i.p., 2 mois) | Nombre de souris avec une parasitemia positive (T. congolense [2]; dose 1 mg/kg i.p., 3 mois) | activité curative et préventive (durée) (T. congolense [2]) | activité trypanocide in-vivo (T. congolense [3]) | activité trypanocide inférieure à celle des formulations commerciales (T. congolense [1]) | other results |
| --- | --- | --- | --- | --- | --- | --- | --- | --- | --- | --- | --- | --- | --- |
| 9,24 ± 2,13 ng/ml | 0,56 ± 0,05 ng/ml | 0.00056 µg/mL | CC[n+]1c(-c2ccccc2)c2cc(N/N=N/c3cccc(C(=N)N)c3)ccc2c2ccc(N)cc21 [Isométamidium pur, 8-(3-m-amidinophényl-2-triazeno)-3-amino-5-éthyl-6-phénylphénanthridinium] | 0.00924 µg/mL | 0 | 0 | 0 | 0 | 0 | – | – | – | Nombre de souris avec une parasitemia positive (T. congolense [2]; dose 0.1 mg/kg i.p., 3 mois): 0; Nombre de souris avec une parasitemia positive (T. congolense [2]; dose 0.1 mg/kg i.p., 4 mois): 5; Nombre de souris avec une parasitemia positive (T. congolense [2]; dose 1 mg/kg i.p., 4 mois): 5 |
| >1 µg/mL | 66,27 ± 14,37 ng/ml | 0.0663 µg/mL | CC[n+]1c(-c2ccccc2)c2cc(N=NNc3cccc(C(=N)N)c3)ccc2c2ccc(N=NNc3cccc(C(=N)N)c3)cc21 [Composé disubstitué pur, 3,8-di-(3-m-amidinophenyltriazeno)-5-éthyl-6-phénylphénanthridium] | > 1 µg/mL | 5 | – | 0 | 0 | – | pendant au moins trois mois | activité prophylactique et non curative | – | Nombre de souris avec une parasitemia positive (T. congolense [2]; dose 1 mg/kg i.p., 3 mois, listed as Composé disubstitué, 1 mg/kg): 1; Nombre de souris avec une parasitemia positive (T. congolense [2]; dose 1 mg/kg i.p., 3 mois, listed as composé disubstitué, 1 mg/kg): seule une souris est parasite-positive; Nombre de souris avec une parasitemia positive (T. congolense [2]; dose 1 mg/kg i.p., 4 mois, listed as Composé disubstitué, 1 mg/kg): 4; Nombre de souris avec une parasitemia positive (T. congolense [2]; dose 1 mg/kg i.p., 4 mois, listed as composé disubstitué, 1 mg/kg): la seule souris parasite-négative; protection / activité curative (T. congolense [4]): permettait de protéger les bovins contre T. congolense, mais était dépourvu de toute activité curative |
| 202,15 ± 62,92 ng/ml | 3,63 ± 0,55 ng/ml | 0.00363 µg/mL | CC[n+]1c(-c2ccccc2)c2cc(N)ccc2c2ccc(N=NNc3cccc(C(=N)N)c3)cc21 [Isomère rouge, 3-(3-m-amidinophényl-2-triazeno)-8-amino-5-éthyl-6-phénylphénanthridinium] | 0.202 µg/mL | 0 | 5 | 0 | 1 | 5 | – | – | ≤ 10 fois | activité trypanocide inférieure à celles des compositions commerciales (T. b. brucei; versus commercial compositions, 48 h): ~20 fois |

| Compound | IC50 (T. b. brucei) | IC50 (T. congolense [1]) | IC50 (T. congolense [1]; [6]) | IC50 (T. b. brucei; [5]) | Nombre de souris avec une parasitemia positive (T. congolense [2]; dose 0.1 mg/kg i.p., 1 mois) | Nombre de souris avec une parasitemia positive (T. congolense [2]; dose 0.1 mg/kg i.p., 2 mois) | Nombre de souris avec une parasitemia positive (T. congolense [2]; dose 1 mg/kg i.p., 1 mois) | Nombre de souris avec une parasitemia positive (T. congolense [2]; dose 1 mg/kg i.p., 2 mois) | Nombre de souris avec une parasitemia positive (T. congolense [2]; dose 1 mg/kg i.p., 3 mois) | activité curative et préventive (durée) (T. congolense [2]) | activité trypanocide in-vivo (T. congolense [3]) | activité trypanocide inférieure à celle des formulations commerciales (T. congolense [1]) | other results |
| --- | --- | --- | --- | --- | --- | --- | --- | --- | --- | --- | --- | --- | --- |
| CC[n+]1c(-c2ccccc2)c2c(N=Nc3cccc(C(=N)N)c3)c(N)ccc2c2ccc(N)cc21 [Isomère bleu, 7-(m-amidinophényldiazo)-3,8-diamino-5-éthyl-6-phényl phénanthridinium, reference compound] | 12,01 ± 2,22 ng/ml | 7,11 ± 0,76 ng/ml | 0.00711 µg/mL | 0.012 µg/mL | 0 | 5 | 0 | 4 | – | n'est plus significative au bout de deux mois | activité trypanocide curative | ≤ 10 fois | protection des souris d'une infection (durée) (T. congolense [2]; dose 0,1 mg/kg): ne sont actifs que pendant un mois |
